{"source": "patent US6849416B2", "about": "“Monoclonal antibody” (priority 2001, dated 2005)", "key": {"[1]": {"test_system": "human APP751Sw transgenic H4 neuroglioma cell line (released Aβ peptides)", "assay": "Treatment of APP751Sw transgenic H4 neuroglioma cells with protease inhibitors, Aβ peptides released into supernatant", "type": "cell-based", "settings": "for Aβ1-40, Aβ1-42, Aβ1-37/38/39 and Aβ2-42 released into cell culture supernatant: versus DMSO control", "description": "FIG. 27: two Aβ SDS-PAGE/immunoblots 2 which show a treatment of a human 751APPSw trangenic H4 neuroglioma cell line with various protease inhibitors (23a) and a dose-dependent effect of calpain inhibitor 1 (23b). The released Aβ peptides were quantified in 4 μl of SDS/thermally denatured cell culture supernatants in each case (cf. FIGS. 23a,b). For comparison, the sAPPα concentration in the cell culture supernatants was determined.\nIn panel a: (1) is DMSO control; (2) is 50 μM calpain inhibitor 1; (3) is 100 μM calpain inhibitor 3; (4) is 5 μM MG132; (5) is 25 μM calpeptin; (a-d) is mix of synthetic Aβ peptides.\nThe released Aβ peptides were quantified in 4 μl of SDS/thermally denatured cell culture supernatants in each case. The dose-dependent effect of calpain inhibitor 1 on the Aβ peptide concentration in the supernatant was investigated, comparing with the DMSO control.\nThe released Aβ peptides were quantified in 4 μl of SDS/thermally denatured cell culture supernatants in each case. The dose-dependent effect of calpain inhibitor 1 on the proportion of an Aβ peptide species as a percentage of the total Aβ peptide concentration was investigated, comparing with the DMSO control.\nIf the samples are in liquid form (e.g. cell culture supernatants, cell homogenates) and if the Aβ peptide concentration is sufficiently high it is possible to take up one volume unit of sample with one volume unit of the double concentrated SDS-SB-2 (table 3).\nA comparative investigation was carried out on the Aβ peptide pattern in neuroglioma cells (H4) which have been transfected with humanAPP751Sw. […] Aβ2-42 can also be indentified. After treatment with inhibitors of β/γ-secretases (calpain inhibitor I&II, calpeptin, MG132, leupeptin), besides Aβ1-40 and Aβ1-42 there is also a reduction in the C-terminally truncated Aβ peptides 1-37/38/39 and the N-terminally truncated Aβ2-42 (FIGS. 28a,b)."}, "[2]": {"assay": "Aβ IPG 2D-PAGE of synthetic Aβ peptides (isoelectric point)", "type": "physicochemical", "settings": "IPG pH 4-7", "description": "The samples are taken up in IPG-SB (table 5a). Dry substance and Dynabeads magnetically immobilized by means of MSP (see below) are taken up directly with the IPG-SB immediately before IEF and incubated in an ultrasonic bath at 37° C. for 10 min. Taking up of liquid biological samples: after removal of the mixed bed ion exchanger (Serdolit MB-1), the IPB-SB is divided into aliquots (e.g. 100 μl) in Eppendorf sample vessels and concentrated to the dry substance at room temperature using a SpeedVac. The IPG-SB introduced as dry substance is taken up with sample with the ratio 1:1 by volume (e.g. 100 μl) and, after a vortex step (1 min.), incubated in an ultrasonic bath at 37° C. for 10 min.\nThe IEF using commercial IPG “[…]” took place in accordance with the manufacturer's protocol (Amersham Pharmacia Biotech/brief instructions 71-5009-57, edition AA, 99-04). IPG “[…]” (4-7, linear pH gradient, length 7 cm) were rehydrogenated to a gel thickness of 0.5 mm using the rehydrogenation solution from table 5a at room temperature overnight. The sample loading device (“sample cups”) is placed on the basic side of the IPG strips, at about pH 6.5 (cathodic loading) and 30 μl of sample is loaded. The IPG-IEF takes place for 30 min/300V, 30 min/800V, 30 min./1400V and 5 h/2000V ([…]).\nThe IPG-IEF is followed by equilibration of the “[…]” for 2×10 min. (table 5b). The first equilibration solution contains DTT (50 mg/5 ml), the second solution iodoacetamide (240 mg/5 ml) for neutralization of excess DTT, which otherwise leads to color artefacts on silver staining of the gels. The second equilibration step is unnecessary for the Western immunoblot. The equilibrated IPG “[…]” are fixed on the stacking gel of the Aβ SDS-PAGE using agarose solution (table 5c). A sample well for loading synthetic Aβ peptides or Mr marker proteins for comparison is made in the hot agarose using a Teflon tooth. The electrophoresis takesplace in accordance with 3.1.2."}, "[3]": {"assay": "Cryoprecipitation of synthetic peptide dissolved in water", "type": "physicochemical", "settings": "dissolved with comparable concentration in water, freezing", "from_the_text": "This makes it probable that the reduction caused by cryoprecipitation in Aβ1-42 in human CSF derives predominantly from the aggregate-bound proportion of the peptide. In the case of comparatively hydrophobic aggregates—for example lipoprotein-containing complexes—a loss through cryoprecipitation would not be surprising. In this connection, it is shown hereinafter (4.2.4) that ε4-positive patients in the NDC-3CP group show a particularly high rate of CP-related reduction in Aβ1-42 and have CSF levels which are approximately as low as ε4-positive AD-3CP patients."}}, "note": "Where a SMILES comes first, the peptide text is derived from it. [ ]: non-standard residue; d: D form. The star is where a group is joined. Nle = CCCC[C@H](N)C(=O)O; Cbz = O=C(OCc1ccccc1)*"}
{"compound": "CSCC[C@@H](C=O)NC(=O)[C@H](CC(C)C)NC(=O)[C@H](CC(C)C)NC(C)=O", "note": "[calpain inhibitor II] (Ac-Leu-Leu-Met-aldehyde)", "values": [{"measurement": "Aβ1-40, Aβ1-42, Aβ1-37/38/39 and Aβ2-42 released into cell culture supernatant", "setting": "[1]", "value": "reduction"}]}
{"compound": "CC(C)C[C@@H](C=O)NC(=O)[C@H](CC(C)C)NC(=O)[C@H](CC(C)C)NC(=O)OCc1ccccc1", "note": "[MG132] (Cbz-Leu-Leu-Leu-aldehyde)", "values": [{"measurement": "Aβ1-40, Aβ1-42, Aβ1-37/38/39 and Aβ2-42 released into cell culture supernatant", "setting": "[1]", "value": "reduction"}]}
{"compound": "Aβ2-40: synthetic β-amyloid peptide 2-40, lacking N-terminal aspartate", "values": [{"measurement": "isoelectric point", "setting": "[2]", "value": 6.37}]}
{"compound": "Aβ1-42: synthetic β-amyloid peptide 1-42 (Bachem)", "values": [{"measurement": "cryoprecipitation compared with Aβ1-42 in human CSF", "setting": "[3]", "value": "distinctly less cryoprecipitation"}, {"measurement": "isoelectric point", "setting": "[2]", "value": 5.37}]}
{"compound": "Aβ3-40: synthetic β-amyloid peptide 3-40", "values": [{"measurement": "isoelectric point", "setting": "[2]", "value": 6.37}]}
{"compound": "CC(=O)N[C@@H](CC(C)C)C(=O)N[C@@H](CC(C)C)C(=O)N[C@H](C=O)CCCNC(=N)N", "note": "[leupeptin]", "values": [{"measurement": "Aβ1-40, Aβ1-42, Aβ1-37/38/39 and Aβ2-42 released into cell culture supernatant", "setting": "[1]", "value": "reduction"}]}
{"compound": "CCCC[C@@H](C=O)NC(=O)[C@H](CC(C)C)NC(=O)OCc1ccccc1", "note": "[calpeptin]", "values": [{"measurement": "Aβ1-40, Aβ1-42, Aβ1-37/38/39 and Aβ2-42 released into cell culture supernatant", "setting": "[1]", "value": "reduction"}]}
{"compound": "CCCC[C@@H](C=O)NC(=O)[C@H](CC(C)C)NC(=O)[C@H](CC(C)C)NC(C)=O", "note": "[calpain inhibitor 1] (Ac-Leu-Leu-[Nle]-aldehyde)", "values": [{"measurement": "Aβ1-42 concentration at low concentration of the protease inhibitor", "setting": "[1]; low inhibitor concentration", "value": "initial (paradoxical) increase"}, {"measurement": "Aβ2-42 concentration in relation to the increase in Aβ1-42", "setting": "[1]; low inhibitor concentration", "value": "did not correlate with an increase"}, {"measurement": "Aβ1-40, Aβ1-42, Aβ1-37/38/39 and Aβ2-42 released into cell culture supernatant", "setting": "[1]", "value": "dose-dependent reduction"}, {"measurement": "Aβ1-40, Aβ1-42, Aβ1-37/38/39 and Aβ2-42 released into cell culture supernatant", "setting": "[1]; listed as calpain inhibitor I", "value": "reduction"}]}
